Patent US8883812B2, “Piperidinyl pyrimidine amides as Kv7 potassium channel openers” (Pfizer Inc., priority 2010, dated 2014)

Legend:
in vivo = details: male, Wistar Han IGS (CRL:WI [Han]), rat, po
Male Wistar Han IGS rats = assay: Safety studies - behavioral observations (rat DRF); details: for Rat DRF Dose, Threshold for MCS / Rat DRF Dose, NOEL / Rat DRF Dose, Threshold for SAE: oral gavage, single dose; for Rat DRF Dose, Threshold for MCS: manageable clinical signs; for Rat DRF Dose, NOEL: no observable effect limit; for Rat DRF Dose, Threshold for SAE: serious adverse event; for Rat DRF Dose, Threshold for MCS / Rat DRF Dose, NOEL / Rat DRF Dose, Threshold for SAE / margin with regards to serious adverse events: rat; for margin with regards to serious adverse events: text statement comparing with retigabine
[1] = Compound concentrations (exposure) in rat DRF safety study
[2] = Predicted human efficacious concentration; details: unbound plasma
[3] = ratio of free brain exposure at the dose to projected human concentration
[4] = read-out: Rat DRF Cmax, Threshold for MCS, oral gavage, at MCS threshold dose
[5] = read-out: Rat DRF Cmax, Threshold for SAE, oral gavage, at SAE threshold dose

COc1nc(N2CCC(OC)CC2)nc(OC)c1NC(=O)CC(C)(C)C [Example 1, N-(4,6-dimethoxy-2-(4-methoxypiperidin-1-yl)pyrimidin-5-yl)-3,3-dimethylbutanamide]
Cmax (in vivo): 54 nM | Rat DRF Dose, Threshold for MCS (Male Wistar Han IGS rats): 10 mg/kg | Rat DRF Dose, NOEL (Male Wistar Han IGS rats): 3 mg/kg | Rat DRF Dose, Threshold for SAE (Male Wistar Han IGS rats): 100 mg/kg | margin with regards to serious adverse events (Male Wistar Han IGS rats): 69 × | Rat DRF TI (toxicity index), NOEL (Male Wistar Han IGS rats; [3]): 4.2 | Rat DRF TI (toxicity index), Threshold for MCS (Male Wistar Han IGS rats; [3]): 7.6 | Rat DRF TI (toxicity index), Threshold for SAE (Male Wistar Han IGS rats; [3]): 67 | Cmax [1, 4]: 99 nM | Cmax [1, 5]: 866 nM | Predicted human Ceff Cp,u [2]: 13 nM

CCOC(=O)Nc1ccc(NCc2ccc(F)cc2)cc1N [Retigabine, N-(2-amino-4-(4-fluorobenzylamino)-phenyl)carbamic acid ethyl ester, reference compound]
Rat DRF Dose, Threshold for MCS (Male Wistar Han IGS rats): 30 to 50 mg/kg | Rat DRF Dose, NOEL (Male Wistar Han IGS rats): 30 mg/kg | Rat DRF Dose, Threshold for SAE (Male Wistar Han IGS rats): 50 mg/kg | margin with regards to serious adverse events (Male Wistar Han IGS rats): 3.9 × | Cmax ([1]; read-out: Rat DRF Cmax, NOEL, oral gavage, at NOEL dose): 870 nM | Cmax [1, 4]: 870 to 2390 nM | Cmax [1, 5]: 2390 nM | Predicted human Ceff Cp,u [2]: 607 nM
